According to US20260137711A1, “COMBINATION THERAPY FOR CANCER” (NATIONAL UNIVERSITY OF IRELAND, GALWAY, priority 2022, published 2026):

What was measured:
Type in all cases: cell-based, human
[1] = system: MCF10A cells; assay: Long-term cell proliferation assay, crystal violet staining; details: 31 nM BI-1347 alone, 7 days, compared to controls
Description: (a and b) MCF10A cells were plated at equal low density and then either mock treated or treated with 31 nM BI-1347, in the presence or absence of XL413 at a doses of (a) 1.25 μM or (b) 10 μM over a 7 day period. Representative images of crystal violet-stained cells are shown alongside quantitation of crystal violet intensity normalised to the untreated control.
Briefly, MCF10A cells were mock-treated or treated in the continued presence of a dual-specificity CDK8/CDK19 inhibitor, BI-1347, in the presence or absence of XL413 at two different concentrations (1.25 μM and 10 μM) for a 7-day period. Relative cell proliferation was estimated by staining cells with crystal violet and measuring staining intensities. […] Importantly the addition of BI-1347 to XL413 caused a further reduction in cell number with staining intensity decreasing by 70% and 95% respectively.
MCF10A cells were seeded at 4,000 cells per well of a 6 well plate and after 24 hours were treated with inhibitors before being incubated for 7 days at 37° C. with 5% CO2. Media was removed from the cells which were then washed with PBS and air dried before being fixed with 100% methanol for 1 hour. Following removal of methanol the plates were air-dried, stained with crystal violet staining solution (0.2% crystal violet, 25% methanol) for 1 hour at room temperature, washed with ddH2O and air-dried. Plates were scanned using a HP Scanjet 4050, to generate images of crystal violet stained cells, and crystal violet staining intensity was acquired using the Odyssey infrared imaging system and Image Studio software (LI-COR Biosciences).

[2] = system: MCF10A cells; assay: Flow cytometry of cell cycle distribution and DNA synthesis (EdU/DAPI)
Description: (c) A typical profile obtained by flow cytometry of MCF10A cells labelled with EdU and DAPI that indicates the gating applied in order to determine the percentage of cells with sub-G1 DNA content (sub-G1), G1 cells (G1), replicating early-mid S phase cells (Early-Mid S/EdU+), replicating mid-late S phase cells (Mid-Late S/EdU+), cells with S phase DNA content but not replicating (2n<& <4n/EdU−), and cells either in G2 or mitosis (G2/M).(d-f) MCF10A cells were mock treated or treated with 10 μM XL413, in the presence or absence of increasing concentrations of the CDK8 inhibitor BI-1347, for 24 hours. (d) Cells were labelled with EdU for last 30 minutes and DNA synthesis, DNA content and cell cycle distribution were assessed by flow cytometry and analysed using the gating strategy described in above (FIG. 2c). (e) Distribution of cells in the cell cycle. (f) Fluorescence intensity, proportional to EdU incorporation, in individual S phase cells. Long and short horizontal black lines indicate the median and the interquartile range, respectively, extending from the 25th to the 75th percentile for ˜3,810 cells for each condition. Data is from a single experiment.
FIG. 3: CDK8 activity is required for efficient DNA synthesis under conditions of limited CDC7 kinase activity (a-c) MCF10A cells were mock treated or treated with 31 nM BI-1347, in the presence or absence of increasing concentrations of the CDC7 inhibitors, XL413 (a-c) and TAK-931 (d-f), for 24 hours. (a and d) Cells were labelled with EdU for last 30 minutes and DNA synthesis, DNA content and cell cycle distribution were assessed by flow cytometry and analysed using the gating strategy described in FIG. 2c.c (b and e) distribution of cells in the cell cycle. (c and f) Fluorescence intensity, proportional to EdU incorporation, in individual S phase cells. Long and short horizontal black lines indicate the median and the interquartile range, respectively, extending from the 25th to the 75th percentile for ˜4,190 cells for each condition. Data is from a single experiment.
To analyse the cell cycle and DNA synthesis, nascent DNA was labelled by incubating cells with 10 μM EdU for either 20 or 30 minutes prior to harvest, washing with PBS, and then by resuspension in PBS containing 70% EtOH for 1 hour at −20° C. After a PBS wash, incorporated EdU was labelled by incubating cells in click reaction buffer (PBS containing 10 μM 6-Carboxyfluorescine-TEG-azide, 10 mM Sodium-L-ascorbate, 2 mM Copper-II-Sulphate) for 30 minutes protected from light. Cells were washed in PBS containing 1% BSA, 5% Tween 20 and then DNA stained in PBS containing 1% BSA and 1 μg/ml DAPI. All washes involve: centrifugation at 400×g for 5 minutes, removal of supernatant from pellet, resuspension in the appropriate buffer, recentrifugation and removal of supernatant from the pellet prior to the next step.
Fluorescence intensity data for 6-Carboxyfluorescine (488_530_30 nm) and DAPI (405_450_50 nm) were acquired for 10,000 single cells on a BD FACS Canto II and analysed using FlowJo software. To further analyse fluorescence intensity, proportional to EdU incorporation, for individual cells, gates were applied on DAPI-EdU biparametric dot plots to select for EdU positive S phase cells using FlowJo. According to the required analysis these gates included either all S phase cells, or only early or late S phase cells. Fluorescence intensity (488_530_30) values per cell were exported and plotted as scatter dot plots using GraphPad prism. For comparisons of mean fluorescence intensity of a cell population across three biological repeat experiments, all fluorescence intensity values were normalised to the maximum fluorescence intensity of the untreated control sample of each respective experiment to account for absolute differences in EdU staining. […]

[3] = system: MDA-MB-231; assay: as above; details: 31 nM BI-1347 with 1.25 μM XL413, 24 hours
Description: (§1) Supplemental FIG. 3: Characteristic phenotypes associated with inhibition of CDC7 and CDK8 are observed in multiple cell lines A panel of different cell lines, including: MDA-MB-468 (a-c); MDA-MB-231 (d-f); and U-2 OS (g-i), were mock treated or treated with 1.25 μM XL413 and/or 31 nM BI-1347BI-1347 for 24 hours. Cells were labelled with EdU for last 30 minutes and DNA synthesis, DNA content and cell cycle distribution were assessed by flow cytometry and analysed using the gating strategy described in FIG. 2c. (b, e and h) distribution of cells in the cell cycle. (c, f and i) Fluorescence intensity, proportional to EdU incorporation, in individual S phase cells. Long and short horizontal black lines indicate the median and the interquartile range, respectively, extending from the 25th to the 75th percentile for ˜3,922 (MDA-MB-468), ˜3,291 (MDA-MB-231), and ˜4,628 (U-2 OS) cells for each condition. Data is from a representative experiment from 3 biological repeats. […]
(§2) Fluorescence intensity data for 6-Carboxyfluorescine (488_530_30 nm) and DAPI (405_450_50 nm) were acquired for 10,000 single cells on a BD FACS Canto II and analysed using FlowJo software. To further analyse fluorescence intensity, proportional to EdU incorporation, for individual cells, gates were applied on DAPI-EdU biparametric dot plots to select for EdU positive S phase cells using FlowJo. […] Fluorescence intensity (488_530_30) values per cell were exported and plotted as scatter dot plots using GraphPad prism. For comparisons of mean fluorescence intensity of a cell population across three biological repeat experiments, all fluorescence intensity values were normalised to the maximum fluorescence intensity of the untreated control sample of each respective experiment to account for absolute differences in EdU staining. The mean fluorescence intensity values of these cell populations across three biological repeat experiments are expressed as a ratio relative to a control sample and plotted as a scatter dot plot using GraphPad prism.

[4] = system: U-2 OS; assay: as above; details: 31 nM BI-1347 with 1.25 μM XL413, 24 hours
Description: as §1, §2

[5] = system: MDA-MB-468; assay: as above; details: 31 nM BI-1347 with 1.25 μM XL413, 24 hours
Description: as §1, §2

[6] = BI-1347 alone at increasing concentrations, 24 hours
[7] = CDC7 inhibitor alone at increasing concentrations, absence of CDK8/CDK19i, 24 hours
[8] = CDC7 inhibitor at increasing concentrations together with the CDK8/CDK19 inhibitor (31 nM BI-1347), 24 hours, all doses tested

SMILES | decrease in the relative staining intensity (crystal violet) [1] | cell cycle distribution [2, 6] | rate of DNA synthesis in S phase cells [2, 6] | increase in the potency of the CDC7 inhibitor in replication assays ([2]; BI-1347 in combination with CDC7 inhibitors, decrease in rate of DNA synthesis) [fold] | potentiation of cell cycle and DNA replication phenotypes imposed by CDC7 inhibition [3] | potentiation of cell cycle and DNA replication phenotypes imposed by CDC7 inhibition [4] | potentiation of cell cycle and DNA replication phenotypes imposed by CDC7 inhibition [5] | cell cycle distribution [2, 7] | rate of DNA synthesis of S phase cells [2, 7] | cell cycle distribution [2, 8] | rate of DNA synthesis [2, 8]
CN(C)C(=O)Cn1ccc(-c2ccc(-c3cncc4ccccc34)cc2)c1 [BI-1347] | approximately 30% | dose-dependent increase in G1 phase cells with a corresponding decrease in early-mid S phase cells | subtle and dose-independent decrease | ~10 | strong potentiation | strong potentiation | strong potentiation | – | – | – | –
Cc1n[nH]cc1-c1cc2[nH]c([C@@H]3CC4CCN3CC4)nc(=O)c2s1 [TAK-931] | – | – | – | – | – | – | – | dose-dependent accumulation of mid-late S phase cells | corresponding decrease | more pronounced accumulation of cells in mid-late S phase | much more profound decrease
